Laboratory results as given in patent US10765114B2, “4-amino-6-(pyridyl and 2-substitutedphenyl)-picolinates and 6-amino-2-(pyridyl and 2-substitutedphenyl)-pyrimidine-4-carboxylates and their use as herbicides” (Dow AgroSciences LLC, priority 2013, dated 2020).
Read-outs that look alike come from different tables or passages of the source.

Tests used:
[1] = system: Key Broadleaf Weed and Crop Species; test: Post-Emergent Test II (Table 5); type: in vivo; conditions: post-emergence, 336 h; for pest or weed control at 70 g/ha: application rate 70 (kg ai/ha; footnote: g ai/ha); for pest or weed control at 140 g/ha: application rate 140 (kg ai/ha; footnote: g ai/ha)
Method in brief: (§1)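 Plants at first or second true-leaf stage, grown 7-21 days in greenhouse, were sprayed post-emergence at 187 L/ha with compounds in acetone/DMSO/water/crop oil/surfactant mixture at the high rate and ½× to 1/16× dilutions. Injury scored visually after 14 days, 0 (none) to 100% (complete kill), versus untreated plants.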

[2] = system: Key Grass and Sedge Weeds as well as Grass Crops; test: Post-Emergent Test II (Table 6); type: in vivo; conditions: post-emergence, 336 h, 14 days after application; for pest or weed control at 70 g/ha: 70 g ai/ha; for pest or weed control at 140 g/ha: 140 g ai/ha
Method in brief: as §1

[3] = Abutilon theophrasti, ABUTH: velvetleaf (Abutilon theophrasti), read-out: Visual Growth Reduction (%) 14 Days After Application ABUTH
[4] = Amaranthus retroflexus, AMARE: redroot pigweed (Amaranthus retroflexus), read-out: Visual Growth Reduction (%) 14 Days After Application AMARE
[5] = Brassica napus, BRSSS: oilseed rape, canola (Brassica napus), read-out: Visual Growth Reduction (%) 14 Days After Application BRSSS
[6] = Chenopodium album, CHEAL: lambsquarters (Chenopodium album), read-out: Visual Growth Reduction (%) 14 Days After Application CHEAL
[7] = Euphorbia heterophylla, EPHHL: wild poinsettia (Euphorbia heterophylla), read-out: Visual Growth Reduction (%) 14 Days After Application EPHHL
[8] = Helianthus annuus, HELAN: sunflower (Helianthus annuus), read-out: Visual Growth Reduction (%) 14 Days After Application HELAN
[9] = Viola tricolor, VIOTR: wild pansy (Viola tricolor), read-out: Visual Growth Reduction (%) 14 Days After Application VIOTR
[10] = CYPSS, read-out: Visual Growth Reduction (%) 14 Days After Application CYPSS
[11] = DIGSA: crabgrass (Digitaria sanguinalis), read-out: Visual Growth Reduction (%) 14 Days After Application DIGSA
[12] = ECHSS, read-out: Visual Growth Reduction (%) 14 Days After Application ECHSS
[13] = ORYSS (crop), read-out: Visual Growth Reduction (%) 14 Days After Application ORYSS
[14] = SETFA: giant foxtail (Setaria faberi), read-out: Visual Growth Reduction (%) 14 Days After Application SETFA
[15] = SORVU: grain sorghum (Sorghum vulgare), read-out: Visual Growth Reduction (%) 14 Days After Application SORVU
[16] = TRZSS (crop), read-out: Visual Growth Reduction (%) 14 Days After Application TRZSS
[17] = ZEAMX: maize, corn (Zea mays), read-out: Visual Growth Reduction (%) 14 Days After Application ZEAMX

SMILES | pest or weed control at 70 g/ha [1, 3] | pest or weed control at 140 g/ha [1, 3] | pest or weed control at 70 g/ha [1, 4] | pest or weed control at 140 g/ha [1, 4] | pest or weed control at 70 g/ha [1, 5] | pest or weed control at 140 g/ha [1, 5] | pest or weed control at 70 g/ha [1, 6] | pest or weed control at 140 g/ha [1, 6] | pest or weed control at 70 g/ha [1, 7] | pest or weed control at 140 g/ha [1, 7] | pest or weed control at 70 g/ha [1, 8] | pest or weed control at 140 g/ha [1, 8] | pest or weed control at 70 g/ha [1, 9] | pest or weed control at 140 g/ha [1, 9] | pest or weed control at 70 g/ha [2, 10] | pest or weed control at 140 g/ha [2, 10] | pest or weed control at 70 g/ha [2, 11] | pest or weed control at 140 g/ha [2, 11] | pest or weed control at 70 g/ha [2, 12] | pest or weed control at 70 g/ha [2, 13] | also measured
Cc1ccc(-c2nc(C(=O)O)c(Cl)c(N)c2F)cn1 [Compound 85] | 0 to 29% | 0 to 29% | 95 to 100% | 95 to 100% | 60 to 74% | 75 to 84% | 0 to 29% | 45 to 59% | 0 to 29% | 0 to 29% | 30 to 44% | 45 to 59% | 0 to 29% | 0 to 29% | 0 to 29% | 0 to 29% | 0 to 29% | 0 to 29% | 45 to 59% | 0 to 29% | pest or weed control at 140 g/ha [2, 13]: 0 to 29%; pest or weed control at 70 g/ha [2, 14]: 0 to 29%; pest or weed control at 140 g/ha [2, 14]: 0 to 29%; pest or weed control at 70 g/ha [2, 15]: 0 to 29%; pest or weed control at 140 g/ha [2, 15]: 0 to 29%; pest or weed control at 70 g/ha [2, 16]: 0 to 29%; pest or weed control at 140 g/ha [2, 16]: 0 to 29%; pest or weed control at 70 g/ha [2, 17]: 0 to 29%; pest or weed control at 140 g/ha [2, 17]: 0 to 29%; melting point: 186 to 187 °C
CCc1c(-c2cc(N)c(Cl)c(C(=O)O)n2)ccc(Cl)c1F [Compound 86] | 45 to 59% | 0 to 29% | 85 to 94% | 85 to 94% | 75 to 84% | 85 to 94% | 85 to 94% | 85 to 94% | 0 to 29% | 0 to 29% | 75 to 84% | 75 to 84% | 0 to 29% | 0 to 29% | 0 to 29% | 0 to 29% | 0 to 29% | 0 to 29% | 0 to 29% | 0 to 29% | pest or weed control at 140 g/ha [2, 12]: 0 to 29%; pest or weed control at 140 g/ha [2, 13]: 0 to 29%; pest or weed control at 70 g/ha [2, 14]: 0 to 29%; pest or weed control at 140 g/ha [2, 14]: 0 to 29%; pest or weed control at 70 g/ha [2, 15]: 0 to 29%; pest or weed control at 140 g/ha [2, 15]: 0 to 29%; pest or weed control at 70 g/ha [2, 16]: 0 to 29%; pest or weed control at 140 g/ha [2, 16]: 0 to 29%; pest or weed control at 70 g/ha [2, 17]: 0 to 29%; pest or weed control at 140 g/ha [2, 17]: 0 to 29%; melting point: 144 to 146 °C
Cc1c(-c2cc(N)c(Cl)c(C(=O)O)n2)ccc(F)c1F [Compound 87] | 95 to 100% | 95 to 100% | 95 to 100% | 95 to 100% | 85 to 94% | 85 to 94% | 95 to 100% | 95 to 100% | 0 to 29% | 0 to 29% | 85 to 94% | 95 to 100% | 0 to 29% | 0 to 29% | 0 to 29% | 0 to 29% | 0 to 29% | 0 to 29% | 0 to 29% | 0 to 29% | pest or weed control at 140 g/ha [2, 12]: 0 to 29%; pest or weed control at 140 g/ha [2, 13]: 0 to 29%; pest or weed control at 70 g/ha [2, 14]: 0 to 29%; pest or weed control at 140 g/ha [2, 14]: 0 to 29%; pest or weed control at 70 g/ha [2, 15]: 0 to 29%; pest or weed control at 140 g/ha [2, 15]: 0 to 29%; pest or weed control at 70 g/ha [2, 16]: 0 to 29%; pest or weed control at 140 g/ha [2, 16]: 0 to 29%; pest or weed control at 70 g/ha [2, 17]: 0 to 29%; pest or weed control at 140 g/ha [2, 17]: 0 to 29%; melting point: 163 to 165 °C
